Laboratory results from the supplement of paper PMC10307832.

Experiments:
Assay in all cases: relative viability (nuclei count vs DMSO), 5 days (fraction); higher = more cells survive
[1] = compound: C1COCCN1C2=NC(=NC3=C2OC4=C3C=CC=N4)C5=CC(=CC=C5)NC(=O)C6=CN=C(C=C6)N + CC1(C)CCC(c2ccc(Cl)cc2)=C(CN2CCN(c3ccc(C(=O)NS(=O)(=O)c4ccc(N[C@H](CCN5CCOCC5)CSc5ccccc5)c(S(=O)(=O)C(F)(F)F)c4)cc3)CC2)C1 [Navitoclax] (partner 0.5 µM)
How it was run: (§1)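 Nuclei were stained with Hoechst during a one-step fixation (final 0.05% Triton X-100, 1% formaldehyde, 1 ug/ml Hoechst) carried out 5 days after dosing, then counted on 4× images. The cells, lung cancer lines in 1536-well plates, had been dosed by pin tool the day after seeding with one drug alone or a fixed anchor-drug dose plus five library-drug doses (not always all listed) in √10 steps. Relative viability is the nuclei count in treated wells divided by that in vehicle wells, and each value is the median of duplicate plates.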

[2] = compound: Nc1ccccc1NC(=O)c1ccc(CNC(=O)OCc2cccnc2)cc1 [Entinostat] + C[C@]1(O)C[C@@H](c2nc(-c3ccc4ccc(-c5ccccc5)nc4c3)c3c(N)nccn32)C1 [Linsitinib] (partner 1 µM)
How it was run: as §1

[3] = compound: Nc1ccccc1NC(=O)c1ccc(CNC(=O)OCc2cccnc2)cc1 [Entinostat] + CC(=O)Nc1cccc(-n2c(=O)n(C3CC3)c(=O)c3c(Nc4ccc(I)cc4F)n(C)c(=O)c(C)c32)c1 [Trametinib] (partner 0.02 µM)
How it was run: as §1

[4] = compound: CN1CCC(CNc2ccc3ncc(-c4cccc(OC(F)(F)F)c4)n3n2)CC1 [SGI-1776] + COc1cccc2cc(-c3nc([C@H]4CC[C@H](C(=O)O)CC4)n4ncnc(N)c34)[nH]c12 [OSI-027] (partner 0.5 µM)
How it was run: as §1

Row | Cell Line | relative viability ([1]; first compound 0.02 µM) | relative viability ([1]; first compound 0.06325 µM) | relative viability ([1]; first compound 0.2 µM) | relative viability ([1]; first compound 0.6325 µM) | relative viability ([1]; first compound 2 µM) | relative viability ([2]; first compound 0.02 µM) | relative viability ([2]; first compound 0.06325 µM) | relative viability ([2]; first compound 0.2 µM) | relative viability ([2]; first compound 0.6325 µM) | relative viability ([2]; first compound 2 µM) | relative viability ([3]; first compound 0.02 µM) | relative viability ([3]; first compound 0.06325 µM) | relative viability ([3]; first compound 0.2 µM) | relative viability ([3]; first compound 0.6325 µM) | relative viability ([3]; first compound 2 µM) | relative viability ([4]; first compound 0.08 µM) | relative viability ([4]; first compound 0.8 µM) | relative viability ([4]; first compound 2.53 µM) | relative viability ([4]; first compound 8 µM)
1 | NCI-H1793 | 0.398 | 0.523 | 0.416 | 0.655 | 0.375 | 0.964 | 0.841 | 0.834 | 0.698 | 0.364 | 0.465 | 0.387 | 0.31 | 0.304 | 0.292 | 0.258 | 0.253 | 0.31 | 0.223
2 | NCI-H1734 | 0.838 | 0.99 | 0.87 | 0.821 | 0.441 | 0.908 | 0.985 | 0.987 | 0.916 | 0.817 | 0.707 | 0.711 | 0.759 | 0.6 | 0.477 | 0.686 | 0.645 | 0.615 | 0.403
3 | LXF-289 | 0.989 | 1.02 | 0.973 | 0.924 | 0.711 | 0.982 | 0.985 | 0.917 | 0.785 | 0.632 | 0.642 | 0.653 | 0.652 | 0.408 | 0.453 | 0.794 | 0.843 | 0.764 | 0.707
4 | PC-3 [JPC-3] | 0.823 | 0.847 | 0.848 | 0.741 | 0.615 | 0.956 | 0.907 | 0.728 | 0.716 | 0.467 | 0.726 | 0.642 | 0.579 | 0.51 | 0.502 | 0.791 | 0.818 | 0.74 | 0.672
5 | NCI-H2087 | 1.02 | 1.03 | 0.925 | 0.918 | 0.608 | 0.815 | 0.733 | 0.779 | 0.559 | 0.481 | 0.189 | 0.193 | 0.169 | 0.136 | 0.141 | 0.704 | 0.693 | 0.566 | 0.496
6 | HCC-78 | 0.709 | 0.728 | 0.906 | 0.769 | 0.645 | 0.496 | 0.395 | 0.306 | 0.156 | 0.151 | 0.706 | 0.662 | 0.505 | 0.377 | 0.253 | 0.407 | 0.418 | 0.385 | 0.398
7 | NCI-H1395 | 0.919 | 1.07 | 1.03 | 1.25 | 1.19 | 1.1 | 1.13 | 1.01 | 0.885 | 0.594 | 1.08 | 1.09 | 0.977 | 0.79 | 0.699 | 0.78 | 0.582 | 0.627 | 0.448
